Among the test systems are 786-0 renal; COLO 205 colon; HOP-62 NSCLC; IGROV1 ovarian; NCI-H522 lung; SK-MEL-5 melanoma; SK-OV-3 ovarian; T-47D breast; U251 CNS; UO-31 renal.
Assay in all cases: inhibition of tumour cell growth, NCI panel, 48 h

The structures appear in SMILES notation.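 Following 48 hours of exposure in 96-well plates, responses at five concentrations were used to interpolate endpoints linearly. TGI: total growth inhibition.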 Some results are limits rather than exact numbers.

As to `CC(C)c1cc(C(C)C)c(B(c2ccccc2)c2ccccc2)c(C(C)C)c1Br`, the TGI in the assay on 786-0 renal, in the assay with COLO 205 colon, with HOP-62 NSCLC, with IGROV1 ovarian, in the assay on NCI-H522 lung and with SK-MEL-5 melanoma was greater than 100 µM each time. For the same compound, the TGI in the assay on SK-OV-3 ovarian, with T-47D breast, in the assay on U251 CNS and in the assay on UO-31 renal was greater than 100 µM each time.

On to `O=C(OCC(OC(=O)c1ccccc1)C1CC(C(O)C2CCCCC2)C(=O)O1)c1ccccc1` (stereo not given), for which the TGI in the assay with 786-0 renal is greater than 100 µM; in the assay with COLO 205 colon it was greater than 100 µM; in the assay with HOP-62 NSCLC, greater than 100 µM; in the assay on IGROV1 ovarian it was greater than 100 µM; in the assay with NCI-H522 lung, greater than 100 µM; in the assay with SK-MEL-5 melanoma, 32.2 µM. Also, the TGI in the assay on SK-OV-3 ovarian, with T-47D breast, in the assay with U251 CNS and in the assay with UO-31 renal was greater than 100 µM each time.

As for `[O-][n+]1cc(SCc2ccccc2)ncc1SCc1ccccc1`, the TGI with 786-0 renal, in the assay with COLO 205 colon, in the assay on HOP-62 NSCLC, in the assay with IGROV1 ovarian, with NCI-H522 lung and with SK-MEL-5 melanoma was greater than 10 µM each time. The TGI with SK-OV-3 ovarian, with T-47D breast, with U251 CNS and in the assay on UO-31 renal was greater than 10 µM throughout.

With `O=C1CSC2=NC3=C(COC/C3=C\c3ccc(F)cc3)C(c3ccc(F)cc3)N12` (stereo not given), the TGI in the assay on 786-0 renal, in the assay with COLO 205 colon, in the assay on HOP-62 NSCLC, in the assay with IGROV1 ovarian, in the assay with NCI-H522 lung and in the assay with SK-MEL-5 melanoma was greater than 100 µM throughout. The TGI in the assay on SK-OV-3 ovarian, in the assay with T-47D breast, in the assay with U251 CNS and in the assay on UO-31 renal was greater than 100 µM in each case.

`C=C1CC2C[C@H](OS(=O)(=O)c3ccc(C)cc3)C(C1)N2C` (stereo not given in full): the TGI in the assay with 786-0 renal, in the assay on COLO 205 colon, in the assay on HOP-62 NSCLC, in the assay on IGROV1 ovarian, in the assay with NCI-H522 lung and in the assay on SK-MEL-5 melanoma was greater than 100 µM throughout. Besides, the TGI with SK-OV-3 ovarian, in the assay with T-47D breast, in the assay on U251 CNS and in the assay on UO-31 renal was greater than 100 µM in each case.

Take `COc1ccc2c(-c3csc(-c4c[nH]c5ccccc45)n3)c[nH]c2c1`: the TGI in the assay on 786-0 renal is 18.2 µM; in the assay on COLO 205 colon, greater than 57.7 µM; with HOP-62 NSCLC it was 49.2 µM; with IGROV1 ovarian, greater than 58.2 µM; in the assay with NCI-H522 lung, 25.4 µM; in the assay with SK-MEL-5 melanoma, 30.6 µM. In addition, the TGI was 42.7 µM with SK-OV-3 ovarian, greater than 100 µM with T-47D breast, 29.8 µM in the assay on U251 CNS and 30.6 µM in the assay with UO-31 renal.

On to `C[S+](C)C1(c2ccccc2)C(=O)c2ccccc2C1=O`, for which the TGI in the assay with 786-0 renal was greater than 100 µM; with COLO 205 colon, greater than 100 µM; in the assay with HOP-62 NSCLC, greater than 100 µM; in the assay with IGROV1 ovarian, greater than 100 µM; with NCI-H522 lung, greater than 68.7 µM; in the assay on SK-MEL-5 melanoma, greater than 53.5 µM. Moreover, the TGI in the assay with SK-OV-3 ovarian is greater than 100 µM; with T-47D breast, 92.1 µM; with U251 CNS, greater than 66.3 µM; in the assay on UO-31 renal, greater than 56.5 µM.

Turning to `S=C1NNC(=S)NN1`, the TGI in the assay with 786-0 renal, in the assay on COLO 205 colon, with HOP-62 NSCLC, in the assay on IGROV1 ovarian, in the assay with NCI-H522 lung and in the assay with SK-MEL-5 melanoma was greater than 1 µM in each case. Moreover, the TGI in the assay on SK-OV-3 ovarian, in the assay with T-47D breast, in the assay with U251 CNS and with UO-31 renal was greater than 1 µM each time.

As for `CC(=O)N1C(=O)/C(=C\C(=O)c2ccc(Cl)cc2)c2ccccc21`, the TGI came out at 15.9 µM in the assay on 786-0 renal; 26.7 µM in the assay with COLO 205 colon; 41.2 µM with HOP-62 NSCLC; 33.2 µM with IGROV1 ovarian; 26.9 µM in the assay with NCI-H522 lung; 39.8 µM in the assay on SK-MEL-5 melanoma. Besides, the TGI with SK-OV-3 ovarian turned out to be 59.9 µM; with T-47D breast, 47.6 µM; in the assay with U251 CNS it was 37.2 µM; in the assay on UO-31 renal it was 29.6 µM.

Consider `Oc1[nH]c2ccccc2c1N=NC(=S)NCc1ccccn1`, for which the TGI in the assay on 786-0 renal worked out at 13.6 µM; in the assay with COLO 205 colon, 13.6 µM; with HOP-62 NSCLC, 6.87 µM; in the assay with IGROV1 ovarian it was 13.9 µM; with NCI-H522 lung, 14.7 µM; in the assay with SK-MEL-5 melanoma, 12 µM. Also, the TGI is 13.8 µM in the assay with SK-OV-3 ovarian, 21.4 µM in the assay on T-47D breast, 6.22 µM in the assay with U251 CNS and 6.56 µM in the assay with UO-31 renal.

As for `NC(=O)c1ccc(S(=O)(=NS(=O)(=O)c2ccccc2)c2ccc(C(N)=O)cc2)cc1`, the TGI in the assay on 786-0 renal, in the assay with COLO 205 colon, in the assay with HOP-62 NSCLC, in the assay with IGROV1 ovarian, with NCI-H522 lung and in the assay on SK-MEL-5 melanoma was greater than 100 µM throughout. For the same compound, the TGI with SK-OV-3 ovarian, in the assay with T-47D breast, in the assay with U251 CNS and with UO-31 renal was greater than 100 µM throughout.

`NC(=O)c1nnc2c(F)cccc2c1N`: the TGI with 786-0 renal, with COLO 205 colon, in the assay with HOP-62 NSCLC, in the assay with IGROV1 ovarian, in the assay with NCI-H522 lung and in the assay with SK-MEL-5 melanoma was greater than 100 µM each time. The TGI in the assay with SK-OV-3 ovarian, in the assay with T-47D breast, with U251 CNS and in the assay with UO-31 renal was greater than 100 µM throughout.

As to `Cn1c(-c2cccs2)cc(-c2ccsc2)c1-c1ccsc1`, the TGI in the assay with 786-0 renal, with COLO 205 colon, in the assay on HOP-62 NSCLC, in the assay with IGROV1 ovarian, in the assay with NCI-H522 lung and with SK-MEL-5 melanoma was greater than 100 µM in each case. Also, the TGI in the assay with SK-OV-3 ovarian is greater than 100 µM; in the assay on T-47D breast, 59.6 µM; in the assay with U251 CNS it was greater than 100 µM; in the assay with UO-31 renal it was greater than 100 µM.

For the compound `Oc1cccc(-c2cn3cc(Cl)ccc3n2)c1`, the TGI was greater than 100 µM in the assay with 786-0 renal; greater than 100 µM with COLO 205 colon; greater than 100 µM with HOP-62 NSCLC; greater than 100 µM in the assay on IGROV1 ovarian; 43.3 µM in the assay with NCI-H522 lung; 35.9 µM in the assay on SK-MEL-5 melanoma. The TGI in the assay with SK-OV-3 ovarian is greater than 100 µM; in the assay with T-47D breast it was 48.2 µM; in the assay on U251 CNS, greater than 100 µM; in the assay on UO-31 renal, greater than 100 µM.

(Values after PubChem BioAssay (NCI).)
